Test results as given in patent US9532520B2, “Drought tolerant plants” (NUNHEMS B.V., priority 2009, dated 2017).

Tested on: tomato seedlings (Solanum lycopersicum cv. Moneymaker)
Experiment: Root growth assay on ½MS media containing ABA
Format: in vivo
Conditions: wild type tomato; 0, 5, 10 or 40 μM ABA; root length seven days after transfer, relative to medium without ABA
Experimental: Seeds were sterilized as described above and sown in water containing […]. After radicle protrusion ten seeds of each line were placed on ½MS media containing either 0, 5, 10, or 40 μM ABA. The roots were measured and the plates were placed in vertical position and grown under conditions described above. Seven days after transfer the length of the root was measured again and root growth was calculated as a percentage of root growth compared to ½MS media without ABA (100%). Experiments were carried out three times and mean values plus SD are shown. Student's t-tests were performed to test for significance (p<0.05).

CC1=CC(=O)CC(C)(C)[C@@]1(O)/C=C/C(C)=C\C(=O)O [ABA, abscisic acid]
root growth after germination: reduced
